Results published in patent US20090124636A1, “CHEMICAL COMPOUNDS” (priority 2006, published 2009).
Read-outs that look alike come from different tables or passages of the source.

Test system: HIV-1 fusion
Test: cells
Format: cell-based
Experimental: The gp160 induced cell-cell fusion assay uses a HeLa P4 cell line and a CHO-Tat10 cell line.
The HeLa P4 cell line expresses CCR5 and CD4 and has been transfected with HIV-1 LTR-β-Galactosidase. The media for this cell line is Dulbecco modified eagle's medium (D-MEM) (without L-glutamine) containing 10% foetal calf serum (FCS), 2 mM L-glutamine, penicillin/streptomycin (Pen/Strep; 100 U/mL penicillin+[…] streptomycin), and 1 μg/ml puromycin.
The CHO cell line is a Tat (transcriptional trans activator)-expressing clone from a CHO JRR17.1 cell line that has been transfected with pTat puro plasmid. The media for this cell line is rich medium for mammalian cell culture originally developed at Roswell Park Memorial Institute RPMI1640 (without L-glutamine) containing 10% FCS, 2 mM L-glutamine, 0.5 mg/ml Hygromycin B and 12 μg/ml puromycin. The CHO JRR17.1 line expresses gp160 (JRFL) and is a clone that has been selected for its ability to fuse with a CCR5/CD4 expressing cell line.
Upon cell fusion, Tat present in the CHO cell is able to transactivate the HIV-1 long terminal repeat (LTR) present in the HeLa cell leading to the expression of the β-Galactosidase enzyme. This expression is then measured using a Fluor Ace™ β-Galactosidase reporter assay kit (Bio-Rad cat no. 170-3150). This kit is a quantitative fluorescent assay that determines the level of expression of β-galactosidase using 4-methylumbelliferyl-galactopyranoside (MUG) as substrate. β-Galactosidase hydrolyses the fluorogenic substrate resulting in release of the fluorescent molecule 4-methylumbelliferone (4 MU). Fluorescence of 4-methylumbelliferone is then measured on a fluorometer using an excitation wavelength of 360 nm and emission wavelength of 460 nm.

[1] = Human immunodeficiency virus 1, HeLaP4
[2] = HIV cell fusion assay, HeLa P4 (CCR5/CD4) and CHO-Tat10 (gp160 JRFL) cells, read-out: IC50

Compound	IC50 [2]	further results
Cc1ccnc(C)c1C(=O)N1CCC(N2CC[C@@H](N(Cc3ccccc3)C(=O)C3CC3)C2)[C@H](C)C1 (stereo partly drawn) [Example 60, N-benzyl-N-((3R)-1-{1-[(2,4-dimethylpyridin-3-yl)carbonyl]-3-methylpiperidin-4-yl}pyrrolidin-3-yl)cyclopropanecarboxamide]		IC50 [1]: 4.46 nM
COCC(=O)N(Cc1cc(F)ccc1F)[C@@H]1CCN(C2CCN(C(=O)c3c(C)ccnc3C)CC2)C1 [Example 23]	1.42 nM	
Cc1onc(C(C)C)c1C(=O)N1CCC(N2CC[C@@H](N(Cc3ccccc3)C(=O)C3CC3)C2)CC1 [Example 42]	66.3 nM	
CC(=O)N(Cc1ccccc1)[C@@H]1CCN(C2CCN(C(=O)c3c(C)cccc3C)CC2)C1 [Example 11]	3.05 nM	
Cc1ccnc(C)c1C(=O)N1[C@@H]2CC[C@H]1C[C@H](N1CC[C@@H](N(Cc3ccccc3)C(=O)C3CC3)C1)C2 [Example 70, N-benzyl-N-((3R)-1-[(3-exo)-8-[(2,4-dimethylpyridin-3-yl)carbonyl]-8-azabicyclo[3.2.1]oct-3-yl]pyrrolidin-3-yl)cyclopropanecarboxamide]		IC50 [1]: 2.65 nM
Cc1ccnc(C)c1C(=O)N1CCC(N2CC[C@@H](N(Cc3cccc(F)c3)C(=O)C3CC(F)(F)C3)C2)CC1 [Example 32]	34.7 nM	
O=C(c1c(F)cccc1Cl)N1CCC(N2CC[C@@H](N(Cc3ccccc3)C(=O)CC3CC3)C2)CC1 [Example 51]	100 nM	
Cc1ccnc(C)c1C(=O)N1CCC(N2CC[C@@H](N(Cc3ccccc3)C(=O)C(C)C)C2)CC1 [Example 30]	18.9 nM	
COCC(=O)N(Cc1ccccc1F)[C@@H]1CCN(C2CCN(C(=O)c3c(C)ccnc3C)CC2)C1 [Example 24]	119 nM	
Cc1ccccc1C(=O)N1CCC(N2CC[C@@H](N(Cc3ccccc3)C(=O)C3CC3)C2)CC1 [Example 17]	40.8 nM	
CC(=O)N(Cc1ccccc1F)[C@@H]1CCN(C2CCN(C(=O)c3c(C)cccc3C)CC2)C1 [Example 14]	13 nM	
Cc1ccnc(C)c1C(=O)N1CCC(N2CC[C@@H](N(Cc3ccccc3)C(=O)C3CC3)C2)CC1 [Example 21]	0.82 nM	
Cc1onc(-c2ccccc2)c1C(=O)N1CCC(N2CC[C@@H](N(Cc3ccccc3)C(=O)C3CC3)C2)CC1 [Example 41]	0.41 nM	
Cc1ccnc(C)c1C(=O)N1CCC(N2CC[C@@H](N(Cc3ccccc3F)C(=O)C3CC(F)(F)C3)C2)CC1 [Example 28]	12.4 nM	
CCOc1ccccc1C(=O)N1CCC(N2CC[C@@H](N(Cc3ccccc3)C(=O)C3CCC3)C2)CC1 [Example 40]	120 nM	
O=C(c1ccccc1)N1CCC(N2CC[C@@H](N(Cc3ccccc3)C(=O)C3CC3)C2)CC1 [Example 56]		IC50 (HIV cell fusion assay, unit μm printed under the cell, read-out: IC50): 1900 nM
CCOC(=O)N(Cc1ccccc1)[C@@H]1CCN(C2CCN(C(=O)c3c(C)ncnc3C)CC2)C1 [Example 38]	135 nM	
